Results as given in patent US8450327B2, “CGRP antagonists” (Boehringer Ingelheim International GmbH, priority 2007, dated 2013).
pKi: −log10 of the molar value.

Target: T1, human CGRP receptor (Homo sapiens, UniProt O60894+Q16602)
T1 construct: SK-N-MC cells are cultivated in “Dulbecco's modified Eagle medium”; endogenous in cells; host or cells: SK-N-MC cells (membrane homogenate)
Assay: Binding studies with SK-N-MC cells (expressing the human CGRP receptor), 125I-CGRP displacement on membranes
Conditions: SK-N-MC cell membranes, 50 pM 125I-iodotyrosyl-CGRP, 180 min at ambient temperature
Protocol: A. Binding Studies with SK-N-MC Cells (Expressing the Human CGRP Receptor)
SK-N-MC cells are cultivated in “Dulbecco's modified Eagle medium”. The medium is removed from confluent cultures. The cells are washed twice with PBS buffer (Gibco 041-04190 M), detached by the addition of PBS buffer mixed with 0.02% EDTA, and isolated by centrifuging. After resuspension in 20 ml of “Balanced Salts Solution” [BSS (in mM): NaCl 120, KCl 5.4, NaHCO3 16.2, MgSO4 0.8, NaHPO4 1.0, CaCl2 1.8, D-glucose 5.5, HEPES 30, pH 7.40] the cells are centrifuged twice at 100×g and resuspended in BSS. After the number of cells has been determined, the cells are homogenised using an Ultra-Turrax and centrifuged for 10 minutes at 3000×g. […]
After thawing, the homogenised product is diluted 1:10 with assay buffer (50 mM Tris, 150 mM NaCl, 5 mM MgCl2, 1 mM EDTA, pH 7.40) and homogenised for 30 seconds with an Ultra-Turrax. […] The protein-bound radioactivity is measured using a gamma counter. Non-specific binding is defined as the bound radioactivity after the presence of 1 μM human CGRP-alpha during incubation.
The concentration binding curves are analysed using computer-aided non-linear curve fitting.

T1 sequence (Q16602 23-461): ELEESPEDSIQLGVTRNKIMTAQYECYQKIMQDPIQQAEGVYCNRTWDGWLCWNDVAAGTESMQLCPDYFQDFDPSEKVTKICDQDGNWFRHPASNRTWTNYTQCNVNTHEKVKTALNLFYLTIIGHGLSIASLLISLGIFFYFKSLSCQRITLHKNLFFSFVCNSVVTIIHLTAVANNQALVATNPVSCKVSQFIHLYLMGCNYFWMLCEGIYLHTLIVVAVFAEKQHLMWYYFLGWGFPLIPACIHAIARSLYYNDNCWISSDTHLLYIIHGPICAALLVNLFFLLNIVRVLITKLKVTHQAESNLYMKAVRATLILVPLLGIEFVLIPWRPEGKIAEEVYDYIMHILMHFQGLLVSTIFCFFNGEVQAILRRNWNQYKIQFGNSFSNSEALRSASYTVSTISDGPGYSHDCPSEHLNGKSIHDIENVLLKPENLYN
T1 sequence (O60894 27-148): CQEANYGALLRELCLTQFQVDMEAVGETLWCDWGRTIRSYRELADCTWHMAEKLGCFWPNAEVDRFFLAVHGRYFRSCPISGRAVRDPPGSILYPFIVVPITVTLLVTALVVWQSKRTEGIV

SMILES	pKi
Cc1cc(C(=O)c2cc(N3CCC4(CC3)NC(=O)Nc3ccccc34)ncn2)cc2oc(=O)[nH]c12 [Example 1, 4-methyl-6-(6-(2′-oxo-2′,3′-dihydro-1′H-spiro[piperidin-4,4′-quinazolin]-1-yl)pyrimidine-4-carbonyl)benzo[d]oxazol-2(3H)-one]	8.22
Cc1cc(C(=O)c2cc(Nc3ccc4c(c3)CC3(C4)C(=O)Nc4ncccc43)ncn2)cc2oc(=O)[nH]c12 (centres unmarked) [Example 2, 4-methyl-6-(6-(2′-oxo-1,1′,2′,3-tetrahydrospiro[inden-2,3′-pyrrolo[2,3-b]pyridin]-5-ylamino)pyrimidine-4-carbonyl)benzo[d]oxazol-2(3H)-one]	7.57
